According to patent US9650395B2, “Antibacterial compounds and methods for use” (PTC Therapeutics, Inc., priority 2011, dated 2017):
In brackets after ≈: the same amount, converted by molar mass. Like-named read-outs stand apart in the source and are kept apart here.

Legend:
[1] = tested on: Moraxella catarrhalis (M. catarrhalis) 25238; experiment: Antibacterial activity, MIC, M. catarrhalis 25238; type: cell-based; conditions: Moraxella catarrhalis, M. catarrhalis 25238; read-out: MIC 25238
[2] = tested on: Gram-positive Staphylococcus aureus (S. aureus) 29213; experiment: Antibacterial activity, microbroth dilution MIC, S. aureus 29213; type: cell-based; conditions: Staphylococcus aureus; S. aureus 29213, microbroth dilution; read-out: MIC, 29213
[3] = tested on: control Gram-negative E. coli 25922 strain; experiment: Antibacterial activity, microbroth dilution MIC, E. coli 25922; type: cell-based, Escherichia coli; conditions: Escherichia coli; E. coli 25922, microbroth dilution; read-out: MIC, 25922
[4] = tested on: super sensitive Gram-negative Escherichia coli (E. coli) BAS849; experiment: Antibacterial activity, microbroth dilution MIC, E. coli BAS849; type: cell-based; conditions: Escherichia coli, read-out: MIC, BAS849
[5] = tested on: Neisseria meningitidis (N. meningitidis) 13090; experiment: Antibacterial activity, MIC, N. meningitidis 13090; type: cell-based; conditions: Neisseria meningitidis; N. meningitidis 13090; read-out: MIC 13090
[6] = tested on: Haemophilus influenzae (H. influenzae) 49247; experiment: Antibacterial activity, MIC, H. influenzae 49247; type: cell-based; conditions: Haemophilus influenzae; H. influenzae 49247; read-out: MIC 49247
Text: The antibacterial activity from a microbroth dilution method may be presented as the minimum inhibitory concentration (MIC in […]). The MIC value is the lowest concentration of a drug which prevents macroscopically visible bacterial growth under test conditions.
Antibacterial activity of test compounds against the Gram-negative bacteria Haemophilus influenzae (H. influenzae) 49247, Moraxella catarrhalis (M. catarrhalis) 25238 and Neisseria meningitidis (N. meningitidis) 13090 is shown in Table 6.

[7] = E. coli BAS849, microbroth dilution

| Structure (SMILES) | MIC [1] [µg/mL] | MIC [2] [µg/mL] | MIC [3] [µg/mL] | MIC [4, 7] [µg/mL] | MIC [5] [µg/mL] | MIC [6] [µg/mL] | MIC [4] [µg/mL] |
| --- | --- | --- | --- | --- | --- | --- | --- |
| CN(C)c1ccc(-c2[nH]c(=O)c(C(=O)O)cc2C2CCCCC2)cc1 [Cpd 6, 5-cyclohexyl-6-[4-(dimethylamino)phenyl]-2-oxo-1,2-dihydropyridine-3-carboxylic acid] | 3.5 to 12.5 (≈ 10.3 to 36.7 µM) | 12.5 to 150 (≈ 36.7 to 441 µM) | 12.5 to 150 (≈ 36.7 to 441 µM) | 3.5 to 12.5 (≈ 10.3 to 36.7 µM) | < 1 | < 1 |  |
| CN(C)c1ccc(-c2[nH]c(=O)c(C(=O)O)c(O)c2C2CCCCC2)cc1 [Cpd 7, 5-cyclohexyl-6-[4-(dimethylamino)phenyl]-4-hydroxy-2-oxo-1,2-dihydropyridine-3-carboxylic acid] | < 1 | 1 to 3.5 (≈ 2.81 to 9.82 µM) | 12.5 to 150 (≈ 35.1 to 421 µM) | 3.5 to 12.5 (≈ 9.82 to 35.1 µM) | 1 to 3.5 (≈ 2.81 to 9.82 µM) | < 1 |  |
| CCCc1c(-c2ccc(N(C)C)cc2)[nH]c(=O)c(C(=O)O)c1O [Cpd 9, 6-[4-(dimethylamino)phenyl]-4-hydroxy-2-oxo-5-propyl-1,2-dihydropyridine-3-carboxylic acid] | < 1 | 1 to 3.5 (≈ 3.16 to 11.1 µM) | 12.5 to 150 (≈ 39.5 to 474 µM) | < 1 | < 1 | < 1 |  |
| CN(C)c1ccc(-c2[nH]c(=O)c(C(=O)O)cc2C(=O)O)cc1 [Cpd 11, 6-[4-(dimethylamino)phenyl]-2-oxo-1,2-dihydropyridine-3,5-dicarboxylic acid] | 12.5 to 150 (≈ 41.4 to 496 µM) | 12.5 to 150 (≈ 41.4 to 496 µM) | 12.5 to 150 (≈ 41.4 to 496 µM) | 12.5 to 150 (≈ 41.4 to 496 µM) | 12.5 to 150 (≈ 41.4 to 496 µM) | < 1 |  |
| CN(C)c1ccc(-c2[nH]c(=O)c(C(=O)O)c(O)c2C2CC2)cc1 [Cpd 13, 5-cyclopropyl-6-[4-(dimethylamino)phenyl]-4-hydroxy-2-oxo-1,2-dihydropyridine-3-carboxylic acid] | < 1 | 3.5 to 12.5 (≈ 11.1 to 39.8 µM) | 12.5 to 150 (≈ 39.8 to 477 µM) | 1 to 3.5 (≈ 3.18 to 11.1 µM) | < 1 | < 1 |  |
| CN(C)c1ccc(-c2[nH]c(=O)c(C(=O)O)cc2C#N)cc1 [Cpd 14, 5-cyano-6-[4-(dimethylamino)phenyl]-2-oxo-1,2-dihydropyridine-3-carboxylic acid] | 12.5 to 150 (≈ 44.1 to 529 µM) | 12.5 to 150 (≈ 44.1 to 529 µM) | 12.5 to 150 (≈ 44.1 to 529 µM) | 12.5 to 150 (≈ 44.1 to 529 µM) | 12.5 to 150 (≈ 44.1 to 529 µM) | < 1 |  |
| CN(C)c1ccc(-c2[nH]c(=O)c(C(=O)O)cc2CN)cc1.Cl [Cpd 22, 5-(aminomethyl)-6-[4-(dimethylamino)phenyl]-2-oxo-1,2-dihydropyridine-3-carboxylic acid hydrochloride] | 12.5 to 150 | 12.5 to 150 | 12.5 to 150 | 12.5 to 150 | 3.5 to 12.5 | 12.5 to 150 |  |
| CCc1c(-c2ccc(NCCCI)cc2)[nH]c(=O)c(C(=O)O)c1O [Cpd 82, 5-ethyl-4-hydroxy-6-{4-[(3-iodopropyl)amino]phenyl}-2-oxo-1,2-dihydropyridine-3-carboxylic acid] | < 1 | 1 to 3.5 (≈ 2.26 to 7.91 µM) | 12.5 to 150 (≈ 28.3 to 339 µM) | 3.5 to 12.5 (≈ 7.91 to 28.3 µM) | < 1 | < 1 |  |
| Cc1cc(C(=O)O)c(=O)[nH]c1-c1ccc(N2CCOCC2)c(F)c1 [Cpd 89, 6-[3-fluoro-4-(morpholin-4-yl)phenyl]-5-methyl-2-oxo-1,2-dihydropyridine-3-carboxylic acid] | 12.5 to 150 (≈ 37.6 to 451 µM) | 12.5 to 150 (≈ 37.6 to 451 µM) | 12.5 to 150 (≈ 37.6 to 451 µM) | 12.5 to 150 (≈ 37.6 to 451 µM) | 12.5 to 150 (≈ 37.6 to 451 µM) | < 1 |  |
| CCc1cc(C(=O)O)c(=O)[nH]c1-c1ccc(N2CCN(C(=O)OC(C)(C)C)CC2)c(F)c1 [Cpd 91, 6-{4-[4-(tert-butoxycarbonyl)piperazin-1-yl]-3-fluorophenyl}-5-ethyl-2-oxo-1,2-dihydropyridine-3-carboxylic acid] | < 1 | 12.5 to 150 (≈ 28.1 to 337 µM) | 12.5 to 150 (≈ 28.1 to 337 µM) | 12.5 to 150 (≈ 28.1 to 337 µM) | 3.5 to 12.5 (≈ 7.86 to 28.1 µM) | 1 to 3.5 (≈ 2.24 to 7.86 µM) |  |
| CCc1c(-c2ccc(N(CC)CC)cc2)[nH]c(=O)c(C(=O)O)c1O [Cpd 98, 6-[4-(diethylamino)phenyl]-5-ethyl-4-hydroxy-2-oxo-1,2-dihydropyridine-3-carboxylic acid] | 3.5 to 12.5 (≈ 10.6 to 37.8 µM) | 3.5 to 12.5 (≈ 10.6 to 37.8 µM) | 12.5 to 150 (≈ 37.8 to 454 µM) | < 1 | < 1 | 1 to 3.5 (≈ 3.03 to 10.6 µM) |  |
| CCc1cc(C(=O)O)c(=O)[nH]c1-c1ccc(N2CCN(C(=O)OC(C)(C)C)CC2)cc1 [Cpd 102, 6-{4-[4-(tert-butoxycarbonyl)piperazin-1-yl]phenyl}-5-ethyl-2-oxo-1,2-dihydropyridine-3-carboxylic acid] | < 1 | 12.5 to 150 (≈ 29.2 to 351 µM) | 12.5 to 150 (≈ 29.2 to 351 µM) | 1 to 3.5 (≈ 2.34 to 8.19 µM) | 1 to 3.5 (≈ 2.34 to 8.19 µM) | 1 to 3.5 (≈ 2.34 to 8.19 µM) |  |
| CCc1cc(C(=O)O)c(=O)[nH]c1-c1ccc(N2CCNCC2)cc1.O=C(O)C(F)(F)F [Cpd 103, 5-ethyl-2-oxo-6-[4-(piperazin-1-yl)phenyl]-1,2-dihydropyridine-3-carboxylic acid trifluoroacetate] | 12.5 to 150 | 12.5 to 150 | 12.5 to 150 |  | 3.5 to 12.5 | < 1 | 3.5 to 12.5 |
| CCc1cc(C(=O)O)c(=O)[nH]c1-c1ccc(-n2ccnc2)cc1 [Cpd 106, 5-ethyl-6-[4-(1H-imidazol-1-yl)phenyl]-2-oxo-1,2-dihydropyridine-3-carboxylic acid] | 12.5 to 150 (≈ 40.4 to 485 µM) | 12.5 to 150 (≈ 40.4 to 485 µM) | 12.5 to 150 (≈ 40.4 to 485 µM) | 12.5 to 150 (≈ 40.4 to 485 µM) | 3.5 to 12.5 (≈ 11.3 to 40.4 µM) | < 1 |  |
| CCc1c(-c2ccc(N3CCCCC3)cc2)[nH]c(=O)c(C(=O)O)c1O [Cpd 109, 5-ethyl-4-hydroxy-2-oxo-6-[4-(piperidin-1-yl)phenyl]-1,2-dihydropyridine-3-carboxylic acid] | < 1 | 3.5 to 12.5 (≈ 10.2 to 36.5 µM) | 12.5 to 150 (≈ 36.5 to 438 µM) | < 1 | < 1 | < 1 |  |
| CCc1cc(C(=O)O)c(=O)[nH]c1-c1ccc(N2CCCC2=O)cc1 [Cpd 114, 5-ethyl-2-oxo-6-[4-(2-oxopyrrolidin-1-yl)phenyl]-1,2-dihydropyridine-3-carboxylic acid] | < 1 | 12.5 to 150 (≈ 38.3 to 460 µM) | 12.5 to 150 (≈ 38.3 to 460 µM) | 1 to 3.5 (≈ 3.06 to 10.7 µM) | < 1 | < 1 |  |
| CCc1cc(C(=O)O)c(=O)[nH]c1-c1ccc(N2CC3CC2CN3)cc1.O=C(O)C(F)(F)F (stereo not drawn) [Cpd 138, 6-[4-(2,5-diazabicyclo[2.2.1]hept-2-yl)phenyl]-5-ethyl-2-oxo-1,2-dihydropyridine-3-carboxylic acid trifluoroacetate] | < 1 | 12.5 to 150 | 12.5 to 150 |  | 12.5 to 150 | 12.5 to 150 | 12.5 to 150 |
| CCc1cc(C(=O)O)c(=O)[nH]c1-c1ccc(N2CCC[C@H]2C(F)(F)F)cc1 [Cpd 142, 5-ethyl-2-oxo-6-{4-[(2S)-2-(trifluoromethyl)pyrrolidin-1-yl]phenyl}-1,2-dihydropyridine-3-carboxylic acid] | 1 to 3.5 (≈ 2.63 to 9.2 µM) | 12.5 to 150 (≈ 32.9 to 394 µM) | 12.5 to 150 (≈ 32.9 to 394 µM) | 1 to 3.5 (≈ 2.63 to 9.2 µM) | < 1 | 3.5 to 12.5 (≈ 9.2 to 32.9 µM) |  |
| CCc1cc(C(=O)O)c(=O)[nH]c1-c1ccc(N2CCCC2c2ccccc2)cc1 (stereo not drawn) [Cpd 145, 5-ethyl-2-oxo-6-[4-(2-phenylpyrrolidin-1-yl)phenyl]-1,2-dihydropyridine-3-carboxylic acid] | < 1 | 1 to 3.5 (≈ 2.57 to 9.01 µM) | 12.5 to 150 (≈ 32.2 to 386 µM) | < 1 | < 1 | < 1 |  |
